Results published in article PMC7778606, “Development of the phenylpyrazolo[3,4-d]pyrimidine-based, insulin-like growth factor receptor/Src/AXL-targeting small molecule kinase inhibitor” (Theranostics, 2021).
Like-named read-outs stand apart in the source and are kept apart here.

Key:
[1] = tested on: H460 cells; assay: MTT assay, viability of H460 cells; type: cell-based; details: Homo sapiens, NCI-H460, 72 h, three days, read-out: IC50 against the viability
Description: (§1) Cells were seeded into 96-well plates at a density of 1-2 × 10^3 cells/well and incubated for 24 h. Cells were treated with vehicle or various concentrations of test compounds for two (PC9 and PC9/ER cells) or three (other cells) days. Cells were further incubated with MTT solution (final concentration of 500 μg/mL) for 4 h at 37 °C. The formazan products were dissolved in dimethyl sulfoxide (DMSO), and the absorbance was measured at 570 nm. The data are presented as a percentage of the control group.

[2] = tested on: AXL; assay: Western blot, phosphorylation of AXL in H1944 and A549 cells; type: cell-based, human; details: 2.5 μM
Description: Before harvesting, the cells were stimulated with 10% FBS for 20 min. Total cell lysates were prepared with modified radioimmunoprecipitation assay lysis buffer (50 mM Tris-HCl [pH 7.4], 150 mM NaCl, 1 mM EDTA, 0.25% sodium deoxycholate, 1% Triton X-100, 100 mM NaF, 5 mM Na3VO4, 1 mM PMSF, 1 μg/mL aprotinin, 1 μg/mL leupeptin, and 1 μg/mL pepstatin). Equal amounts of protein (20 μg) were subjected to 8% SDS-PAGE and electrically transferred onto polyvinylidene difluoride membranes (Bio-Rad Laboratories, Hercules, CA, USA). Membranes were blocked with blocking buffer (3% BSA in Tris-buffered saline containing 0.1% Tween-20 [TBST]) for 1 h at room temperature. The membranes were incubated with primary antibodies diluted in 3% BSA in TBST (1:1,000) overnight at 4 °C, washed multiple times with TBST, and incubated with secondary antibodies diluted in 3% nonfat dry milk in TBST (1:5,000) for 1 h at room temperature. The membranes were washed multiple times with TBST and visualized using an enhanced chemiluminescence detection kit (Thermo Fisher Scientific). Densitometric analysis was performed using ImageJ software.

[3] = Pharmacokinetic study in rats; type: in vivo, SD rats
Description: The pharmacokinetic properties of LL6 were investigated in SD rats (n = 3). The left femoral artery and vein were catheterized with polyethylene tube (Intramedic^TM PE-50; Becton-Dickinson Diagnostics, MD, USA) under Zoletil (Virbac, Carros, France) anesthesia (50 mg/kg, intramuscular injection). LL6 was dissolved in DMSO/PEG 400/normal saline mixture (35:35:30, v/v/v) and single dose solution (1 mg/kg) was administered to rat intravenously. Approximately 150 µL of blood samples were collected via femoral artery at predetermined time (1, 3, 5, 10, 15, 30, 60, 120 and 180 min) and equivalent volume of normal saline solution with 20 U/mL of heparin was replenished to prevent blood coagulation. After centrifugation of the sample at 16,000 × g for 5 min, 50 µL aliquot of plasma samples were stored at -20 °C until HPLC-MS/MS analysis. The Pharmacokinetic parameters, including terminal half-life (T½), area under the plasma concentration-time curve from time zero to time last (AUClast), area under the plasma concentration-time curve from time zero to time infinity (AUCinf), volume of distribution at steady-state (Vss) and mean residence time (MRT) were calculated using non-compartmental analysis (WinNonlin, version 3.1, NCA 201; Pharsight, Mountain View, CA, USA).

[4] = target: T1, ABL1-phosphorylated (Homo sapiens, UniProt P00519); assay: KINOMEscan competition binding assay; details: LL6 at 10 μM; read-out: Percent Control
T1 construct: purchased DiscoverX KINOMEscan
Description: (§2) To briefly summarize, Kd was measured by a competition binding assay that quantitatively measures the ability of a compound to compete with an immobilized ligand. […] Dose response curves of 11 points are obtained for Kd values, which are measured in duplicate. See more details in the cited references [39]-[42] and see also at www.discoverx.com.

[5] = target: T2, AKT1 (Homo sapiens, UniProt P31749); assay: KINOMEscan competition binding assay; details: LL6 at 10 μM; read-out: Percent Control
T2 construct: purchased DiscoverX KINOMEscan
Description: as §2

[6] = target: T3, AKT2 (Homo sapiens, UniProt P31751); assay: KINOMEscan competition binding assay; details: LL6 at 10 μM; read-out: Percent Control
T3 construct: purchased DiscoverX KINOMEscan
Description: as §2

[7] = target: T4, ABL1(E255K)-phosphorylated (Homo sapiens, UniProt P00519, E255K); assay: KINOMEscan competition binding assay; details: LL6 at 10 μM; read-out: Percent Control
T4 construct: purchased DiscoverX KINOMEscan
Description: as §2

[8] = target: T5, ABL1-nonphosphorylated (Homo sapiens, UniProt P00519); assay: KINOMEscan competition binding assay; details: LL6 at 10 μM; read-out: Percent Control
T5 construct: purchased DiscoverX KINOMEscan
Description: as §2

[9] = target: T6, ADCK3 (Homo sapiens, UniProt Q8NI60); assay: KINOMEscan competition binding assay; details: LL6 at 10 μM; read-out: Percent Control
T6 construct: purchased DiscoverX KINOMEscan
Description: as §2

[10] = target: T7, ACVR1B (Homo sapiens, UniProt P36896); assay: KINOMEscan competition binding assay; details: LL6 at 10 μM; read-out: Percent Control
T7 construct: purchased DiscoverX KINOMEscan
Description: as §2

[11] = target: T8, ABL1(T315I)-phosphorylated (Homo sapiens, UniProt P00519, T315I); assay: KINOMEscan competition binding assay; details: LL6 at 10 μM; read-out: Percent Control
T8 construct: purchased DiscoverX KINOMEscan
Description: as §2

[12] = target: T9, AURKB (Homo sapiens, UniProt Q96GD4); assay: KINOMEscan competition binding assay; details: LL6 at 10 μM; read-out: Percent Control
T9 construct: purchased DiscoverX KINOMEscan
Description: as §2

[13] = Glucose tolerance test; type: in vivo; details: LL6-administered mice vs vehicle-treated mice
Description: Glucose tolerance tests were performed as described in the previously published literature.

[14] = tested on: H1993 cells; assay: MTT assay, viability of H1993 cells; type: cell-based; details: Homo sapiens, NCI-H1993, 72 h, three days, read-out: IC50 against the viability
Description: as §1

[15] = SD, rat, plasma, rats, intravenous, 1 mg/kg

T9 sequence (Q96GD4 whole entry): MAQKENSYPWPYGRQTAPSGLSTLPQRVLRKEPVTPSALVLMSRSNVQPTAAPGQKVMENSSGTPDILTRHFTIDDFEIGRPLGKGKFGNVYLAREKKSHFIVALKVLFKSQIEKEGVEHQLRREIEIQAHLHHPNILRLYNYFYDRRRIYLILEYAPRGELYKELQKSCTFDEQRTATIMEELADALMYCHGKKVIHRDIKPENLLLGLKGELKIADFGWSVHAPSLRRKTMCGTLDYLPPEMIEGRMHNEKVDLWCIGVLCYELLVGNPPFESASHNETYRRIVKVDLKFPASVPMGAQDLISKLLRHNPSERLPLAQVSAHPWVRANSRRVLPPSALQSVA
T6 sequence (Q8NI60 163-647): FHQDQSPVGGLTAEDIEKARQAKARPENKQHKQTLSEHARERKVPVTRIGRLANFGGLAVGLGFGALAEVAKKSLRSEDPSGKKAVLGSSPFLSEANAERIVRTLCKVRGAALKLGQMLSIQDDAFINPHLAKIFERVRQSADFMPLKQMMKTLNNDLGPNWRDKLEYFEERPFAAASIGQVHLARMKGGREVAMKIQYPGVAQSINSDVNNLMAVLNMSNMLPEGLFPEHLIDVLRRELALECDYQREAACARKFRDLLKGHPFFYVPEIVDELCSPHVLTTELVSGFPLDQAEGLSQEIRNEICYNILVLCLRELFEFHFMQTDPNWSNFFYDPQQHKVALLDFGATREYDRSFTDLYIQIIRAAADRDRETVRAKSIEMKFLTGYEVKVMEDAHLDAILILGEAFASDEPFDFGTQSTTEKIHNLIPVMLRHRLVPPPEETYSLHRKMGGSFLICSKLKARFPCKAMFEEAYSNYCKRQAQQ
T7 sequence (P36896 24-505): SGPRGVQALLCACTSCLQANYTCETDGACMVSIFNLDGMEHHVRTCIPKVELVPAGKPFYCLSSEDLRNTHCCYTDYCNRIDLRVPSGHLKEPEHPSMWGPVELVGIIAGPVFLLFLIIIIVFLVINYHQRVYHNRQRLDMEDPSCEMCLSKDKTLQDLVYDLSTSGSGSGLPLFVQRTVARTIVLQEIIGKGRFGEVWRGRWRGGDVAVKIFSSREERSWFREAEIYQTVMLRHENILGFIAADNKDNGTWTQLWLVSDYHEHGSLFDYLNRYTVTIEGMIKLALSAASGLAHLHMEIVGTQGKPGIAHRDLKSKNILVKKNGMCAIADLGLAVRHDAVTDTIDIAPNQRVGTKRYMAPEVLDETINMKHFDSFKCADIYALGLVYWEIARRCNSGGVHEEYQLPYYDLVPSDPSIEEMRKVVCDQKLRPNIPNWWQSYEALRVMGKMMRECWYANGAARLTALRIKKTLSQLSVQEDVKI
T3 sequence (P31751 whole entry): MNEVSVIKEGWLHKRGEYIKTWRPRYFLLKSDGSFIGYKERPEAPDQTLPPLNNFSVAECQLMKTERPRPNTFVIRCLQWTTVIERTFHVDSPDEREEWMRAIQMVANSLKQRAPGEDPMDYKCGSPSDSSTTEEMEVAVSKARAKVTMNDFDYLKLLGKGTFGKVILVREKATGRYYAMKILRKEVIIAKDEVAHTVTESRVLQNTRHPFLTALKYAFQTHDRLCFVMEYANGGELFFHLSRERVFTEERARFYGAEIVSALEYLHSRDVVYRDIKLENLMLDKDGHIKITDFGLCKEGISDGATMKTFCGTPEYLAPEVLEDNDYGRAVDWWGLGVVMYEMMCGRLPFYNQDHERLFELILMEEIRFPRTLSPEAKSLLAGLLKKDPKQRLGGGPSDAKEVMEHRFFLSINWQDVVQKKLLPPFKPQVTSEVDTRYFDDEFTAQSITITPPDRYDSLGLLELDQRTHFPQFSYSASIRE
T2 sequence (P31749 whole entry): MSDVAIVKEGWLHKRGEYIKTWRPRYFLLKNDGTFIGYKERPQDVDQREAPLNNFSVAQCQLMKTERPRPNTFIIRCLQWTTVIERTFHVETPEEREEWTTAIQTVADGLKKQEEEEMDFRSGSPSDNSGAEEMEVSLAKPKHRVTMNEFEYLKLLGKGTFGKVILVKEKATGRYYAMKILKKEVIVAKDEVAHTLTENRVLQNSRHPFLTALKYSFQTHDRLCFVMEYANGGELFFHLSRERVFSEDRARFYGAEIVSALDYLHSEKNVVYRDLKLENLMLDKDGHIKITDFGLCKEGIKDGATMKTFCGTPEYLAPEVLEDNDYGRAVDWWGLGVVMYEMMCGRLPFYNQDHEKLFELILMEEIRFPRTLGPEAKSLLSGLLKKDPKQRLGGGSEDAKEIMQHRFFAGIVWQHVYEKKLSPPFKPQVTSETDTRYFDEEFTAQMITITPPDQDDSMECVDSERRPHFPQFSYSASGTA

- IC50 [1]: 3.43 µM
- C0 ([3]; SD, rat, plasma, 1 mg/kg, rats, intravenous, read-out: theoretical initial plasma concentration): 33.3 µM
- AUC(0-inf) [3, 15]: 852 ng·h/mL
- AUC(0-t) [3, 15]: 850 ng·h/mL
- MRT [3, 15]: 20.3 min
- clearance [3, 15]: 19.3 ± 1.2 mL/min/kg
- half-life [3, 15]: 29.1 ± 10 min
- C0 ([3]; SD, rat, plasma, rats, intravenous, 1 mg/kg, read-out: C0 (theoretical initial plasma concentration)): 22700 ng/mL
- Vd ([3]; SD, rat, plasma, rats, intravenous, 1 mg/kg, read-out: Vss): 0.392 ± 0.186 L/kg
- elimination in plasma ([3]; rats, intravenous): rapid
- oral bioavailability ([3]; suggested by the pharmacokinetic study): poor
- remaining binding at 10 µM [4]: 62%
- remaining binding at 10 µM [5]: 100%
- remaining binding at 10 µM [6]: 77%
- remaining binding at 10 µM [7]: 92%
- remaining binding at 10 µM [8]: 61%
- remaining binding at 10 µM [9]: 67%
- remaining binding at 10 µM [10]: 50%
- remaining binding at 10 µM [11]: 100%
- remaining binding at 10 µM [12]: 55%
- IC50 [14]: 7.79 µM
SMILES: Nc1ncnc2c1c(-c1ccc(Cl)cc1)nn2CCn1cc(COc2ccc(Nc3nccc(Nc4cnc5ccccc5c4)n3)cc2)nn1 [LL6]
- activation (phosphorylation) of AXL [2]: efficiently suppressed
- glucose clearance [13]: minimal difference
